Earlier results, collected in patent publication USRE41289E1, “Ultrashort acting hypnotic barbiturates” (ARYx Therapeutics, Inc., priority 2000, dated 2010).

Settings: in vivo

Structure (SMILES): CN1C(=O)NC(=O)C(C)(C2=CCCCC2)C1=O (stereo not shown) [hexobarbital]
- half-life of elimination: 2.7 to 7 h
